Measured values reported in US10053472B2, “Silicon-based fungicides and process for producing the same” (COUNCIL OF SCIENTIFIC & INDUSTRIAL RESEARCH, priority 2014, dated 2018).
Converted amounts (≈) assume the structure as drawn.

Experiments:
[1] = test system: tested plant and human pathogens; assay: Overall antifungal activity, summary of susceptibility testing; type: cell-based; settings: summary statement on Tables 1 and 2
Description: (§1) In vitro antifungal assays were performed by broth microdilution method according to the Clinical and Laboratory Standards Institute (CLSI, formerly NCCL) methods M27-A3 and M-38-A2. The activity was checked against plant pathogenic fungi Fusarium oxysporum CMI 113138, Aspergillus flavus ATCC 11499, Claviceps purpurea CMI 44613, Alternaria solani ATCC 11785, Ustilago maydis PRL 1549 and yeast Dekkera bruxellensis ATCC 36234. Briefly each compound stock was prepared in DMSO at concentration of 12800 μg/ml. For assay compound stocks were serially diluted two fold in microtiter plate and 4 μl of this was used for assay to get a final concentration in the range of 256-2 μg/ml. Spores of the filamentous fungi (˜2×10^4 spores/ml) and yeast cells freshly grown in YPG broth in logarithmic phase (˜2×10^3 cfu/ml) were suspended in the RPMI 1640 medium and 196 μl from these were inoculated in the wells of the plate. The microtitre plate was incubated for 48-72 h. Growth was checked by visual observation and measuring absorbance at 600 nm using microtitre plate reader.
(§2) Antifungal activity of the compounds was also checked against human pathogens Candida albicans ATCC 24433, C. albicans ATCC 10231, Candida glabrata NCYC 388, Candida tropicalis ATCC 750, Cryptococcus neoformans ATCC 34554, Aspergillus niger ATCC 10578, by following procedure described below.

[2] = test system: Dekkera bruxellensis ATCC 36234; assay: Broth microdilution antifungal susceptibility (MIC), yeast; type: cell-based; settings: Brettanomyces bruxellensis, ATCC36234; MIC = concentration exhibiting >90% inhibition of growth vs control; RPMI 1640, 48-72 h; read-out: Minimum Inhibitory Concentration, Dekkera bruxellensis ATCC 36234
Description: as §1

C. albicans ATCC 24433 = assay: Spectrophotometric sterol analysis (effect on sterol composition); type: cell-based, Candida albicans; settings: 0, 0.125, 0.25, 0.50, 1 and 2 μg/ml of compound, 16 h, 28° C.; heptane sterol extract scanned 220-300 nm (FIG. 1)
Description: FIG. 1: Spectrophotometric sterol analysis of Candida albicans ATCC 24433 exposed with different concentrations of compounds of the present invention and reference compounds.
Overnight grown culture of C. albicans ATCC 24433 was inoculated (10^6 cells/ml) in 50 ml 1% YPG broth containing 0, 0.125, 0.25, 0.50, 1, and 2 μg/ml of compounds. The flasks were incubated for 16 h with shaking at 28° C. The stationary-phase cells were harvested by centrifugation at 8000 rpm for 10 min and washed once with sterile distilled water. The net wet weight of the cell pellet was determined. To the 100 mg cell pellet, 3 ml of 25% alcoholic potassium hydroxide solution (25 g of KOH and 35 ml of sterile distilled water, brought to 100 ml with 100% ethanol), was added to each pellet and vortex mixed for 1 min. Cell suspensions were transferred to sterile borosilicate glass screw-cap tubes and were incubated in an 85° C. water bath for 1 h. Following incubation, tubes were allowed to cool to room temperature. Sterols were then extracted by addition of a mixture of 1 ml of sterile distilled water and 3 ml of n-heptane followed by vigorous vortex mixing for 3 min. The heptane layer was transferred to a clean borosilicate glass screw-cap tube and stored at −20° C. for as long as 24 h. Prior to analysis, a 20 μl aliquot of sterol extract was diluted fivefold in 100% ethanol and scanned spectrophotometrically between 220 and 300 nm on Spectrophotometer.

[3] = test system: Candida albicans ATCC 24433; assay: Antifungal susceptibility (MIC), human fungal pathogens; type: cell-based; settings: ATCC24433, MIC = concentration exhibiting >90% inhibition of growth vs control, read-out: Minimum Inhibitory Concentration, C.albicans ATCC 24433
Description: as §1, §2

[4] = test system: Candida tropicalis ATCC 750; assay: as above; type: cell-based; settings: ATCC750, MIC = concentration exhibiting >90% inhibition of growth vs control, read-out: Minimum Inhibitory Concentration, C.tropicalis ATCC 750
Description: as §1, §2

[5] = test system: Cryptococcus neoformans ATCC 34554; assay: as above; type: cell-based; settings: ATCC34554, MIC = concentration exhibiting >90% inhibition of growth vs control, read-out: Minimum Inhibitory Concentration, C.neoformans ATCC 34554
Description: as §1, §2

C. albicans ATCC 10231 = assay: as above; type: cell-based; settings: Candida albicans, ATCC10231; MIC = concentration exhibiting >90% inhibition of growth vs control; read-out: Minimum Inhibitory Concentration, C.albicans ATCC 10231
Description: as §1, §2

[6] = test system: Candida glabrata NCYC 388; assay: as above; type: cell-based; settings: Nakaseomyces glabratus, NCYC388; MIC = concentration exhibiting >90% inhibition of growth vs control; read-out: Minimum Inhibitory Concentration, C.glabrata NCYC 388
Description: as §1, §2

[7] = test system: Aspergillus niger ATCC 10578; assay: as above; type: cell-based; settings: ATCC10578, MIC = concentration exhibiting >90% inhibition of growth vs control, read-out: Minimum Inhibitory Concentration, A. niger ATCC 10578
Description: as §1, §2

[8] = test system: Aspergillus flavus ATCC 11499; assay: Broth microdilution antifungal susceptibility (MIC), plant pathogenic fungi; type: cell-based; settings: ATCC11499, MIC = concentration exhibiting >90% inhibition of growth vs control, RPMI 1640, 48-72 h, read-out: Minimum Inhibitory Concentration, Aspergillus flavus ATCC 11499
Description: as §1

Ustilago maydis PRL 1549 = assay: as above; type: cell-based; settings: Mycosarcoma maydis, PRL1549; MIC = concentration exhibiting >90% inhibition of growth vs control; RPMI 1640, 48-72 h; read-out: Minimum Inhibitory Concentration, Ustilago maydis PRL 1549
Description: as §1

[9] = test system: Fusarium oxysporum CMI 113138; assay: as above; type: cell-based; settings: CMI113138, MIC = concentration exhibiting >90% inhibition of growth vs control, RPMI 1640, 48-72 h, read-out: Minimum Inhibitory Concentration, Fusarium oxysporum CMI 113138
Description: as §1

[10] = test system: Claviceps purpurea CMI 44613; assay: as above; type: cell-based; settings: CMI44613, MIC = concentration exhibiting >90% inhibition of growth vs control, RPMI 1640, 48-72 h, read-out: Minimum Inhibitory Concentration, Claviceps purpurea CMI 44613
Description: as §1

[11] = test system: Alternaria solani ATCC 11785; assay: as above; type: cell-based; settings: ATCC11785, MIC = concentration exhibiting >90% inhibition of growth vs control, RPMI 1640, 48-72 h, read-out: Minimum Inhibitory Concentration, Alternaria solani ATCC 11785
Description: as §1

| SMILES | Antifungal activity against the tested plant and human pathogens (in words) [1] | MIC [2] [µg/mL] | Height of sterol absorbance peaks (ergosterol concentration) (C. albicans ATCC 24433) | MIC [3] [µg/mL] | MIC [4] [µg/mL] | MIC [5] [µg/mL] | MIC (C. albicans ATCC 10231) [µg/mL] | MIC [6] [µg/mL] | MIC [7] [µg/mL] | MIC [8] [µg/mL] | MIC (Ustilago maydis PRL 1549) [µg/mL] | MIC [9] [µg/mL] | MIC [10] [µg/mL] | MIC [11] [µg/mL] |
| --- | --- | --- | --- | --- | --- | --- | --- | --- | --- | --- | --- | --- | --- | --- |
| CC(Cc1ccc(C(C)(C)C)cc1)CN1CC[Si](C)(C)CC1 (racemic) [NDS100414, (R,S)1-(3-(4-(tert-butyl)phenyl)-2-methylpropyl)-4,4-dimethyl-1,4-azasilinane] | potent antifungal activity | 16 (≈ 50.4 µM) | dose-dependent decrease in the height of the absorbance peaks | 4 (≈ 12.6 µM) | 64 (≈ 202 µM) | 2 (≈ 6.3 µM) | 0.5 (≈ 1.57 µM) | 4 (≈ 12.6 µM) | 0.5 (≈ 1.57 µM) | 128 (≈ 403 µM) | 32 (≈ 101 µM) | 64 (≈ 202 µM) | 4 (≈ 12.6 µM) | 32 (≈ 101 µM) |
| CC(Cc1ccc(C(C)(C)C)cc1)CN1CCCCC1 (centres unmarked) [Fenpropidin, reference compound] | potent antifungal activity | 128 (≈ 468 µM) | dose-dependent decrease in the height of the absorbance peaks | 0.5 (≈ 1.83 µM) | 8 (≈ 29.3 µM) | 0.5 (≈ 1.83 µM) | 1 (≈ 3.66 µM) | 0.25 (≈ 0.914 µM) | 0.5 (≈ 1.83 µM) | 256 (≈ 936 µM) | 128 (≈ 468 µM) | 256 (≈ 936 µM) | 32 (≈ 117 µM) | 128 (≈ 468 µM) |
| CC(Cc1ccc(C(C)(C)C)cc1)CN1C[C@@H](C)O[C@@H](C)C1 (some centres unmarked) [Fenpropimorph, reference compound] | potent antifungal activity |  | dose-dependent decrease in the height of the absorbance peaks | 0.125 (≈ 0.412 µM) | 4 (≈ 13.2 µM) | 0.125 (≈ 0.412 µM) | 0.25 (≈ 0.824 µM) | 0.125 (≈ 0.412 µM) | 1 (≈ 3.3 µM) | > 256 | > 256 | > 256 | 32 (≈ 105 µM) | > 256 |
| CC(Cc1ccc(C(C)(C)C)cc1)C(=O)N1CC[Si](C)(C)CC1 (centres unmarked) [NDS100415] |  | > 256 |  | > 256 | > 256 | > 256 | > 256 | > 256 | > 256 | > 256 | > 256 | > 256 | > 256 | > 256 |
| CCC(C)(C)c1ccc(CC(C)CN2CC[Si](C)(C)CC2)cc1 (centres unmarked) [NDS100444] | potent antifungal activity | 4 (≈ 12.1 µM) | dose-dependent decrease in the height of the absorbance peaks | 4 (≈ 12.1 µM) | 64 (≈ 193 µM) | 2 (≈ 6.03 µM) | 0.5 (≈ 1.51 µM) | 8 (≈ 24.1 µM) | 0.5 (≈ 1.51 µM) | 64 (≈ 193 µM) | < 2 | 64 (≈ 193 µM) | 16 (≈ 48.2 µM) | 32 (≈ 96.5 µM) |
| CC(Cc1ccc([Si](C)(C)C)cc1)CN1CC[Si](C)(C)CC1 (centres unmarked) [NDS100579, 4,4-dimethyl-1-(2-methyl-3-(4-(trimethylsilyl)phenyl)propyl)-1,4-azasilinane] |  |  |  | 2 (≈ 5.99 µM) | 64 (≈ 192 µM) | 2 (≈ 5.99 µM) | 1 (≈ 3 µM) | 2 (≈ 5.99 µM) | 0.5 (≈ 1.5 µM) | > 256 | > 256 | > 256 | 64 (≈ 192 µM) | > 256 |
| CC(Cc1ccc(C(C)(C)C)cc1)C(=O)NC[Si](C)(C)c1ccccc1 (centres unmarked) [NDS100582] |  |  |  | > 256 | > 256 | > 256 | > 256 | > 256 | > 256 | > 256 | > 256 | > 256 | > 256 | > 256 |
